ChEMBL document CHEMBL4507319 (2021)
pKi: −log10 of the molar value.

Columns and labels:
[1] = target: Serine/threonine-protein kinase MARK1 (Homo sapiens) (UniProt Q9P0L2); conditions: Compound concentration 1000.0 nM
[2] = target: Sigma intracellular receptor 2 (Homo sapiens, UniProt Q5BJF2); experiment: GPCRScan assay: inhibition of Sigma 2; parameters: radioligand conc. used [nm] 5.0, parental cells HEKT
[3] = target: Myosin light chain kinase 2, skeletal/cardiac muscle (Homo sapiens) (UniProt Q9H1R3); conditions: Compound concentration 1000.0 nM
[4] = target: 1-phosphatidylinositol 3-phosphate 5-kinase (Homo sapiens) (UniProt Q9Y2I7); conditions: Compound concentration 1000.0 nM
[5] = target: Receptor-type tyrosine-protein kinase FLT3 (Homo sapiens) (UniProt P36888); conditions: Compound concentration 1000.0 nM
[6] = target: Tyrosine-protein kinase receptor Tie-1 (Homo sapiens) (UniProt P35590); conditions: Compound concentration 1000.0 nM
[7] = target: MAP kinase-interacting serine/threonine-protein kinase 2 (Homo sapiens) (UniProt Q9HBH9); conditions: Compound concentration 1000.0 nM
[8] = target: Tyrosine-protein kinase SYK (Homo sapiens) (UniProt P43405); conditions: Compound concentration 1000.0 nM
[9] = target: Serine/threonine-protein kinase SBK1 (Homo sapiens) (UniProt Q52WX2); conditions: Compound concentration 1000.0 nM
[10] = system: Receptor-type tyrosine-protein kinase FLT3 (Homo sapiens), P36888 [D835Y]; conditions: Compound concentration 1000.0 nM
[11] = system: Tyrosine-protein kinase ABL1 (Homo sapiens), P00519 [F317I]; conditions: Compound concentration 1000.0 nM
[12] = target: Dual specificity mitogen-activated protein kinase kinase 2 (Homo sapiens) (UniProt P36507); conditions: Compound concentration 1000.0 nM
Chain of Dual specificity mitogen-activated protein kinase kinase 2 (Homo sapiens) (P36507 whole entry, canonical isoform): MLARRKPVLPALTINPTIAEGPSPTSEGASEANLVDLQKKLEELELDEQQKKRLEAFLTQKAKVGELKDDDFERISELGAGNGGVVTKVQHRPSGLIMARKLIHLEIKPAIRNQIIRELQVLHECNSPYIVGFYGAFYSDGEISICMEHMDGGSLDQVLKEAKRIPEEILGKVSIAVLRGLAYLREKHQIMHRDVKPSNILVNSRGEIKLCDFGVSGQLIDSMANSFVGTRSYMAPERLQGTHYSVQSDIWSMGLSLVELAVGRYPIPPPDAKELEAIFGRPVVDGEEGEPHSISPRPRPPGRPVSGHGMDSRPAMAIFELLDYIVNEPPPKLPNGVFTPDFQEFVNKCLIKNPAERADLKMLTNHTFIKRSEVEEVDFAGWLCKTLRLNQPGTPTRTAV

[13] = system: Phosphatidylinositol 4,5-bisphosphate 3-kinase catalytic subunit alpha isoform (Homo sapiens), P42336 [E545K]; conditions: Compound concentration 1000.0 nM
Chain of Phosphatidylinositol 4,5-bisphosphate 3-kinase catalytic subunit alpha isoform (Homo sapiens), P42336 [E545K] (P42336 whole entry E545K, canonical isoform): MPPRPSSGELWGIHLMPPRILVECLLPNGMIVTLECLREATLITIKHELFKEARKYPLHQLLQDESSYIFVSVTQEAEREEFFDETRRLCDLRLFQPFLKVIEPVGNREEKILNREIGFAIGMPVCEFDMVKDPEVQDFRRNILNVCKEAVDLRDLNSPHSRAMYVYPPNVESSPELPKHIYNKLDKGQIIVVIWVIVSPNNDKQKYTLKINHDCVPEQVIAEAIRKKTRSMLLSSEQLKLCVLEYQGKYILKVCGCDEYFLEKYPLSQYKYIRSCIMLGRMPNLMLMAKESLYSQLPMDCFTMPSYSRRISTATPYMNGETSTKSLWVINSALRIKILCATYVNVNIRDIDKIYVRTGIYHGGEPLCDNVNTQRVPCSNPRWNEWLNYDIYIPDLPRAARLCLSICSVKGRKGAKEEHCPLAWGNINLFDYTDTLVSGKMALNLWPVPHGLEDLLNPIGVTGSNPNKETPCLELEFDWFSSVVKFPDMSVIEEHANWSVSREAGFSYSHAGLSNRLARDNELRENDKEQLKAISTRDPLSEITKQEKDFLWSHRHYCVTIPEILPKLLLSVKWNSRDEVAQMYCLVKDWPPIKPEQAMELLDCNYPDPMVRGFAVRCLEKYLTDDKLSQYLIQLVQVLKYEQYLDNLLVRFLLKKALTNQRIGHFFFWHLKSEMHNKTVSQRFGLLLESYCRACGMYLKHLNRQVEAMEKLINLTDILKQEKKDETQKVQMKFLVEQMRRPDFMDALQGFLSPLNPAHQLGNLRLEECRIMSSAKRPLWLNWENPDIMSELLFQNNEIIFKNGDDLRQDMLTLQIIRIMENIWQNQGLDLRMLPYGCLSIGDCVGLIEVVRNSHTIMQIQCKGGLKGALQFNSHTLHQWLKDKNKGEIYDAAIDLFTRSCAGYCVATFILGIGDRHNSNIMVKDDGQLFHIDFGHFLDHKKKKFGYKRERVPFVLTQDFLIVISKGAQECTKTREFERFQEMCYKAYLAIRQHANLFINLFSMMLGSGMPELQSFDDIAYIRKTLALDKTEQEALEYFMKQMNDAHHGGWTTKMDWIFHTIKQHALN

[14] = target: Serine/threonine-protein kinase/endoribonuclease IRE1 (Homo sapiens) (UniProt O75460); conditions: Compound concentration 1000.0 nM
Chain of Serine/threonine-protein kinase/endoribonuclease IRE1 (Homo sapiens) (O75460 19-977 limits assumed): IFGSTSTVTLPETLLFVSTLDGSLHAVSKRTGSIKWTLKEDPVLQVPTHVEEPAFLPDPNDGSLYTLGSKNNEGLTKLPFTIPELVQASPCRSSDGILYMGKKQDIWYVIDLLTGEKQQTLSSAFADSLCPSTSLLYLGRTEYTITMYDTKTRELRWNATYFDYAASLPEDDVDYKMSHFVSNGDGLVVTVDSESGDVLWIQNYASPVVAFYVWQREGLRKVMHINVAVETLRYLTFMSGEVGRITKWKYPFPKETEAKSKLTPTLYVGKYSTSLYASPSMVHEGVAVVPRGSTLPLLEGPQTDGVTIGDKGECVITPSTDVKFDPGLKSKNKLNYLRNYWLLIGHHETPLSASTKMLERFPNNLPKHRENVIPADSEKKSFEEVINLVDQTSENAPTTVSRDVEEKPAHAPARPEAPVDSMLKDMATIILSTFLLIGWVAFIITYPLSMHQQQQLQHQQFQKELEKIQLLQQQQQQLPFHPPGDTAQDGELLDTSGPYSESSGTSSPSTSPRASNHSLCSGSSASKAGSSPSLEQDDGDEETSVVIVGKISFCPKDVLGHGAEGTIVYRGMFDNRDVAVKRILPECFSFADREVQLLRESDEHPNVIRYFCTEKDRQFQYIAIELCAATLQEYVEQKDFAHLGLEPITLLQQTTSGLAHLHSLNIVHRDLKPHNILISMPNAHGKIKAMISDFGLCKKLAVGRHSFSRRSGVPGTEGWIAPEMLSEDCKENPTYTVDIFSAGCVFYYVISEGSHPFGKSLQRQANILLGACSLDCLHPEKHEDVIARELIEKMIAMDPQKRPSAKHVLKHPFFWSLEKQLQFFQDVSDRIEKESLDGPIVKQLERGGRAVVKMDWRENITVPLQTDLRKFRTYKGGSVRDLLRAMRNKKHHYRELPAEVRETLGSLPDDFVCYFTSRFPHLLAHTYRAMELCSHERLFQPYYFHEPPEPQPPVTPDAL

[15] = target: Casein kinase I isoform alpha (Homo sapiens) (UniProt P48729); conditions: Compound concentration 1000.0 nM
[16] = target: MAP/microtubule affinity-regulating kinase 3 (Homo sapiens) (UniProt P27448); conditions: Compound concentration 1000.0 nM
Chain of MAP/microtubule affinity-regulating kinase 3 (Homo sapiens) (P27448 whole entry, looked up): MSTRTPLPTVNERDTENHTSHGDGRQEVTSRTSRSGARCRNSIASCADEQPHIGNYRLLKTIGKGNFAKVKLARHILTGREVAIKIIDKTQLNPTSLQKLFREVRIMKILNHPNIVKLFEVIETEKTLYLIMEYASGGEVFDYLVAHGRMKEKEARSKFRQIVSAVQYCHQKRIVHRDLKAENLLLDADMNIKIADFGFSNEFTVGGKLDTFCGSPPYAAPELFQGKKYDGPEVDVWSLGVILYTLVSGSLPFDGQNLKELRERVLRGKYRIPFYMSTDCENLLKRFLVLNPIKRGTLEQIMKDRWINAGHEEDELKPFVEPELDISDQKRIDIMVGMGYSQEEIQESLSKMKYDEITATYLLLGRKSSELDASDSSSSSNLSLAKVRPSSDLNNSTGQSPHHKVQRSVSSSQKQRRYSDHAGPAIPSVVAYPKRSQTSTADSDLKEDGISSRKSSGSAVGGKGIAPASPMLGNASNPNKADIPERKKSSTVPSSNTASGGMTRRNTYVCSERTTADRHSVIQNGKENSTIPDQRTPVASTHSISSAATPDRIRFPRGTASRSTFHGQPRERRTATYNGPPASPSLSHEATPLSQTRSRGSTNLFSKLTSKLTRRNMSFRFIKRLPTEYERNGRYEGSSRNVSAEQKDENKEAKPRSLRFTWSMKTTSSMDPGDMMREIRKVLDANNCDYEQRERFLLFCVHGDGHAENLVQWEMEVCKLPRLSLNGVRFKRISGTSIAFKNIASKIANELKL

[17] = target: Ephrin type-A receptor 7 (Homo sapiens) (UniProt Q15375); conditions: Compound concentration 1000.0 nM
Chain of Ephrin type-A receptor 7 (Homo sapiens) (Q15375 28-998 limits assumed): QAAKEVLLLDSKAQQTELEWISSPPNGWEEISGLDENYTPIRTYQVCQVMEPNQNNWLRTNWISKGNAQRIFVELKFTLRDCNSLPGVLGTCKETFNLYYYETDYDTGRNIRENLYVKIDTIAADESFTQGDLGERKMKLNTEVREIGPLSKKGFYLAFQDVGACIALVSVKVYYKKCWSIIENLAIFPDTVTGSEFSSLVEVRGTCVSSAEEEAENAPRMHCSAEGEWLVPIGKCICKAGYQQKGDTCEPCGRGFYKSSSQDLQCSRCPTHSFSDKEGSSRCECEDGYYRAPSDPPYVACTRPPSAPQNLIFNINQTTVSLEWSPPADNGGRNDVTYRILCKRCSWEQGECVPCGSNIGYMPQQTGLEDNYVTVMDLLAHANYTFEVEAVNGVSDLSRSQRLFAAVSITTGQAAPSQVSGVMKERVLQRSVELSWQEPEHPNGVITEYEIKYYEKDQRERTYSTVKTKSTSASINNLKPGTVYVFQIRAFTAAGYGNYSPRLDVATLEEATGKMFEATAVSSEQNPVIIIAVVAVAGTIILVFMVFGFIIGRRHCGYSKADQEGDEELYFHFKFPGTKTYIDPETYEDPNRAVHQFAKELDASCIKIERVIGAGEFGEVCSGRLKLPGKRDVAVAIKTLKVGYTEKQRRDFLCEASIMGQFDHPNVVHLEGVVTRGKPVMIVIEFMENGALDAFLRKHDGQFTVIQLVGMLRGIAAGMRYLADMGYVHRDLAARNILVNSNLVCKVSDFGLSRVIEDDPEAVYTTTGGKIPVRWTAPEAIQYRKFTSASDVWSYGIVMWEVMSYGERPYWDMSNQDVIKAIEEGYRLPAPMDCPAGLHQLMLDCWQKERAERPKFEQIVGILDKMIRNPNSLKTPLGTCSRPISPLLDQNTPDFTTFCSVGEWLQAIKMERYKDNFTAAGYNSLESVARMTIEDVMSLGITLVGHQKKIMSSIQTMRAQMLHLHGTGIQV

[18] = target: T1, Phosphatidylinositol 3-kinase C2 domain-containing subunit gamma (Homo sapiens) (UniProt O75747); conditions: Compound concentration 1000.0 nM
T1 sequence (whole entry): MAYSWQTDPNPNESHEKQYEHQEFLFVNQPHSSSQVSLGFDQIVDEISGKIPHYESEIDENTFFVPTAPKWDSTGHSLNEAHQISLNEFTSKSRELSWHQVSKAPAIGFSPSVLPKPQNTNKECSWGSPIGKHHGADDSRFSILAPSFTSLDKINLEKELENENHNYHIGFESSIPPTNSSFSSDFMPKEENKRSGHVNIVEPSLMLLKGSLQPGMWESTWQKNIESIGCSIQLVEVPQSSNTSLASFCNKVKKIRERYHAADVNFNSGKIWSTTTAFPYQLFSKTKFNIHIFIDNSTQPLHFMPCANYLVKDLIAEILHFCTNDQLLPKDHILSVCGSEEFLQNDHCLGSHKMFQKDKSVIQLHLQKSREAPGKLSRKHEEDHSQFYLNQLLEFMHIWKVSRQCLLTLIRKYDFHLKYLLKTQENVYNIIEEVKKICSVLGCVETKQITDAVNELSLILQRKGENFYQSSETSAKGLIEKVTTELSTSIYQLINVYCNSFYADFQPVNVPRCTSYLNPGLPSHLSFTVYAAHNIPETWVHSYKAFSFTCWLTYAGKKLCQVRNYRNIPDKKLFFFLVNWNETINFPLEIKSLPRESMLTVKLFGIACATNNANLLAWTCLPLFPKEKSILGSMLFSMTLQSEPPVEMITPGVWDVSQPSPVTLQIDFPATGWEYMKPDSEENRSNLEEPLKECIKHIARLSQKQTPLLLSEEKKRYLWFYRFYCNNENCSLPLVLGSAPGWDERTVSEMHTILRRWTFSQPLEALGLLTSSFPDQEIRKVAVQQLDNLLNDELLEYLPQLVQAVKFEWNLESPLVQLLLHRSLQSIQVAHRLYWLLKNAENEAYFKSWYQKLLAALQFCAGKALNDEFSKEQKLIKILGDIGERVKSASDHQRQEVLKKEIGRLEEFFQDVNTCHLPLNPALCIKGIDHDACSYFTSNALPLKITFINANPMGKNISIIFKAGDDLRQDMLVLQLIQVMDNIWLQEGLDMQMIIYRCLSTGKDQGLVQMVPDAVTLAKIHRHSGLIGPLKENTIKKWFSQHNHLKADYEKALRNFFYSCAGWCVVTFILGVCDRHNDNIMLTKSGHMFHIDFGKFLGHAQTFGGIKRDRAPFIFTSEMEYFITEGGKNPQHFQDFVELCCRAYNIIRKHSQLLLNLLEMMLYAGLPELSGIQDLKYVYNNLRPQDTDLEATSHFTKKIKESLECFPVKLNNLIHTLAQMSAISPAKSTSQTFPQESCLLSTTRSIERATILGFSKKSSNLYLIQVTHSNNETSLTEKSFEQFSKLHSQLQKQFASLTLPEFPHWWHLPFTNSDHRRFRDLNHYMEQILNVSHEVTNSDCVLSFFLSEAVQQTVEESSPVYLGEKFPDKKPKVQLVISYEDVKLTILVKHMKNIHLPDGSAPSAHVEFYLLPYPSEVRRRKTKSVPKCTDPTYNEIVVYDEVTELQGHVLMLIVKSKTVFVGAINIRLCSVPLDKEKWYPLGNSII

[19] = target: Serine/threonine-protein kinase RIO1 (Homo sapiens) (UniProt Q9BRS2); conditions: Compound concentration 1000.0 nM
[20] = target: Mitogen-activated protein kinase 1 (Homo sapiens) (UniProt P28482); conditions: Compound concentration 1000.0 nM
[21] = target: Macrophage-stimulating protein receptor (Homo sapiens) (UniProt Q04912); conditions: Compound concentration 1000.0 nM
[22] = target: Serine/threonine-protein kinase pim-3 (Homo sapiens) (UniProt Q86V86); conditions: Compound concentration 1000.0 nM
[23] = target: Phosphatidylinositol 4-phosphate 3-kinase C2 domain-containing subunit beta (Homo sapiens) (UniProt O00750); conditions: Compound concentration 1000.0 nM
[24] = target: Serine/threonine-protein kinase PLK4 (Homo sapiens) (UniProt O00444); conditions: Compound concentration 1000.0 nM
[25] = target: Serine/threonine-protein kinase Nek6 (Homo sapiens) (UniProt Q9HC98); conditions: Compound concentration 1000.0 nM

Chain of Serine/threonine-protein kinase MARK1 (Homo sapiens) (Q9P0L2 whole entry, looked up): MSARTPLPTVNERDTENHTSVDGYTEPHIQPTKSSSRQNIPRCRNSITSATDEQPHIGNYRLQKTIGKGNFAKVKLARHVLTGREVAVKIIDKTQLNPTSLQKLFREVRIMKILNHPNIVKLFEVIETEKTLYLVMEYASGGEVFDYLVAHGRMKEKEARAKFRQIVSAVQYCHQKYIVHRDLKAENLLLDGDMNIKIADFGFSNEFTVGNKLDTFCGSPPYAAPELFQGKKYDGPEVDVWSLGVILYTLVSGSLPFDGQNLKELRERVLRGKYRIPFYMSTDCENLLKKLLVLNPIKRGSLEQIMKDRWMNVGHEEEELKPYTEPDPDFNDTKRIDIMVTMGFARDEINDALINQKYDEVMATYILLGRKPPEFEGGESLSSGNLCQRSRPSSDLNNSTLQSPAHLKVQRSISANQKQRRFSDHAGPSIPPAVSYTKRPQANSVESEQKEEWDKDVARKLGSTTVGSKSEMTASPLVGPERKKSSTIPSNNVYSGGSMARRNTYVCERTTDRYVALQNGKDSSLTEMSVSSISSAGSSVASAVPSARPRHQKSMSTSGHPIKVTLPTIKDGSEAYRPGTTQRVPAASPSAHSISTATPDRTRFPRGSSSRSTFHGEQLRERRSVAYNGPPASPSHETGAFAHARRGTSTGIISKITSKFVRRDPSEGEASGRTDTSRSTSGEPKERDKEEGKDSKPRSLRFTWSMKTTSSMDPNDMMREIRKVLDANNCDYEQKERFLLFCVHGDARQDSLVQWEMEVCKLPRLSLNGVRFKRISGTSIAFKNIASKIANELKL

SMILES	residual activity [1] [%]	pKi [2]	residual activity [3] [%]	residual activity [4] [%]	residual activity [5] [%]	residual activity [6] [%]	residual activity [7] [%]	residual activity [8] [%]	residual activity [9] [%]	residual activity [10] [%]	residual activity [11] [%]	residual activity [12] [%]	residual activity [13] [%]	residual activity [14] [%]	residual activity [15] [%]	residual activity [16] [%]	residual activity [17] [%]	residual activity [18] [%]	residual activity [19] [%]	residual activity [20] [%]	also measured
CC1=C(C#N)C(c2ccc3c(c2)c(NC(=O)c2ccccc2C)nn3C)C(C#N)=C(C)N1 [BAY-974]	100	5.35	89	87	90	94	100	100	98	82	78	82	90	84	70	92	100	61	93	80	residual activity [21]: 95%; residual activity [22]: 100%; residual activity [23]: 76%; residual activity [24]: 100%; residual activity [25]: 100%
CCc1ccccc1C(=O)Nc1n[nH]c2c(C)c(F)c(C3C(C#N)=C(C)N(C)C(C)=C3C#N)cc12 [BAY-3827]	36	5.55	80	100	16	100	98	100	100	2.5	100	100	100	70	96	30	81	95	82	86	residual activity [21]: 100%; residual activity [22]: 100%; residual activity [23]: 100%; residual activity [24]: 100%; residual activity [25]: 75%
